Results reported in patent US20130045985A1, “N-(5-FLUORO-2-((4-METHYLBENZYL)OXY)PYRIMIDIN-4-YL)BENZAMIDE DERIVATIVES” (Dow AgroSciences LLC, priority 2011, published 2013).

Assays:
[1] = tested on: Mycosphaerella graminicola; Anamorph: Septoria tritici; Bayer Code SEPTTR; assay: Fungicidal activity: leaf blotch of wheat (SEPTTR), one-day protectant and three-day curative; format: in vivo, Septoria tritici on wheat plants (variety Yuma); settings: wheat plants, rating of % disease control
Protocol: Evaluation of Fungicidal Activity: Leaf Blotch of Wheat (Mycosphaerella graminicola; Anamorph: Septoria tritici; Bayer Code SEPTTR)
Wheat plants (variety Yuma) were grown from seed in a greenhouse in 50% mineral soil/50% soil-less Metro mix until the first leaf was fully emerged, with 7-10 seedlings per pot. These plants were inoculated with an aqueous spore suspension of Septoria tritici either prior to or after fungicide treatments. After inoculation the plants were kept in 100% relative humidity (one day in a dark dew chamber followed by two to three days in a lighted dew chamber) to permit spores to germinate and infect the leaf. The plants were then transferred to a greenhouse for disease to develop.
The following table presents the activity of typical compounds of the present disclosure when evaluated in these experiments. The effectiveness of the test compounds in controlling disease was determined by assessing the severity of disease on treated plants, then converting the severity to percent control based on the level of disease on untreated, inoculated plants.
In each case of Table I the rating scale is as follows: […]

**Q.** Which “SEPTTR 100 PPM 1DP” value ([1]; One-Day Protectant (1DP)) does the source give for `Cc1ccc(COc2ncc(F)c(NC(=O)c3ccccc3)n2)cc1` [Cmpd 1, N-(5-fluoro-2-(4-methylbenzyloxy)pyrimidin-4-yl)benzamide] here?
**A.** B (51-75)

**Q.** What about the “SEPTTR 100 PPM 3DC” value ([1]; Three-Day Curative (3DC)) of the same molecule?
**A.** A (76-100)

**Q.** What about the melting point of the same molecule?
**A.** 93 to 95 °C
